Reference: ChEMBL document CHEMBL3425400, “Is RK-682 a promiscuous enzyme inhibitor? Synthesis and in vitro evaluation of protein tyrosine phosphatase inhibition of racemic RK-682 and analogues” (Eur J Med Chem, 2015)
Calls of active or inactive are those of the source. No cut-off for these calls is given here.

Experiments:
[1] = biological target: T1, Tyrosine-protein phosphatase non-receptor type 1 (Homo sapiens, UniProt P18031); experiment: Inhibition of 6-His-N-terminal tagged human PTP1B expressed in Escherichia coli BL21 (DE3) cells assessed as pNP formation using pNPP as substrate incubated for 15 mins prior to substrate addition by plate reader analysis
T1 sequence (P18031 whole entry): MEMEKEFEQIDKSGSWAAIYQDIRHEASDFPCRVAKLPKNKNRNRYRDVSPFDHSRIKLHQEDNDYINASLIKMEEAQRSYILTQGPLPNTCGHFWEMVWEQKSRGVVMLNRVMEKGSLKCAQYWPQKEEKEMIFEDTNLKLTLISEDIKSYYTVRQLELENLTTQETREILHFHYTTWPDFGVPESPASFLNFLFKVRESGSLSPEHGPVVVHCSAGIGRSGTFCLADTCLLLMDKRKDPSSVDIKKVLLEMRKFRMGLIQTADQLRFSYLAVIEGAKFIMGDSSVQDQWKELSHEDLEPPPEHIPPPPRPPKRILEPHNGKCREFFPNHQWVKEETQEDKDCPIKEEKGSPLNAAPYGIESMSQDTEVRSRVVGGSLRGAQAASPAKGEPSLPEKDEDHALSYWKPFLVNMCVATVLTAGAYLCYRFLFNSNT

[2] = biological target: T2, M-phase inducer phosphatase 2 (Homo sapiens, UniProt P30305); experiment: Inhibition of 6-His-N-terminal tagged human CDC-25B isoform 3 catalytic domain expressed in Escherichia coli BL21 (DE3) cells assessed as pNP formation using pNPP as substrate incubated for 15 mins prior to substrate addition by plate reader analysis
T2 sequence (P30305 whole entry): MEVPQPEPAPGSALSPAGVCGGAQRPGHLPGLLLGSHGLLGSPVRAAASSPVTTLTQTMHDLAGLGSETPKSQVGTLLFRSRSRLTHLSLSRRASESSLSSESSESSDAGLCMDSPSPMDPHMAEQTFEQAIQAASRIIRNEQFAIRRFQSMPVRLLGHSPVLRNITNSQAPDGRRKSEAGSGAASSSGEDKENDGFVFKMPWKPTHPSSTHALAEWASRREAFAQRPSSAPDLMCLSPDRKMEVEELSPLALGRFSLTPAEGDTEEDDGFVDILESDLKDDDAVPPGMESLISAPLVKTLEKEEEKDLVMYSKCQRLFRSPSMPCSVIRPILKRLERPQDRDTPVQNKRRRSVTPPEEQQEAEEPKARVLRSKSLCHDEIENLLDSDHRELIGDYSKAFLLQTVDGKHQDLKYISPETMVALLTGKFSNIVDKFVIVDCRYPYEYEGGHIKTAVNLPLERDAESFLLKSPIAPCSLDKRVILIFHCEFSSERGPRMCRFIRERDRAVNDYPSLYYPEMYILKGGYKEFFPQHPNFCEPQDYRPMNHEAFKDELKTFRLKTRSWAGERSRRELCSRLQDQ

[3] = Retardation factor of the compound using Hexanes:AcOEt (2:1) as solvent system by column chromatography; type: physicochemical
[4] = biological target: T3, Low molecular weight phosphotyrosine protein phosphatase (Homo sapiens, UniProt P24666); experiment: Inhibition of full length 6-His-N-terminal tagged human LMW-PTP expressed in Escherichia coli BL21 (DE3) cells assessed as pNP formation using pNPP as substrate incubated for 15 mins prior to substrate addition by plate reader analysis
T3 sequence (P24666 whole entry): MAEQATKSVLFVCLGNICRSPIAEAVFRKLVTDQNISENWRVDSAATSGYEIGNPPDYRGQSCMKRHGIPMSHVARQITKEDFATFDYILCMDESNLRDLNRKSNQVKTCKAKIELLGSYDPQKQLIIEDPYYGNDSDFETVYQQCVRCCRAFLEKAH

[5] = Retardation factor of the compound using Hexanes:AcOEt (1:2) as solvent system by column chromatography; type: physicochemical
[6] = biological target: T4, Low molecular weight phosphotyrosine protein phosphatase (Homo sapiens) (UniProt P24666); experiment: Inhibition of full length 6-His-N-terminal tagged human LMW-PTP expressed in Escherichia coli BL21 (DE3) cells assessed as pNP formation using pNPP as substrate at 100 uM incubated for 15 mins prior to substrate addition by plate reader analysis
T4 sequence (whole entry): T3 sequence (P24666 whole entry)

[7] = biological target: T5, M-phase inducer phosphatase 2 (Homo sapiens) (UniProt P30305); experiment: Inhibition of 6-His-N-terminal tagged human CDC-25B isoform 3 catalytic domain expressed in Escherichia coli BL21 (DE3) cells assessed as pNP formation using pNPP as substrate at 100 uM incubated for 15 mins prior to substrate addition by plate reader analysis
T5 sequence (whole entry): T2 sequence (P30305 whole entry)

[8] = Retardation factor of the compound using Hexanes:AcOEt (1:1) as solvent system by column chromatography; type: physicochemical
[9] = biological target: Lysozyme C (Gallus gallus) (UniProt P00698); experiment: Binding affinity to hen egg lysozyme after 3 hrs by tryptophan emission monitoring analysis
[10] = biological target: T4, Low molecular weight phosphotyrosine protein phosphatase (Homo sapiens); experiment: Binding affinity to full length 6-His-N-terminal tagged human LMW-PTP expressed in Escherichia coli BL21 (DE3) cells after 3 hrs by tryptophan emission monitoring analysis
[11] = biological target: T6, Tyrosine-protein phosphatase non-receptor type 1 (Homo sapiens) (UniProt P18031); experiment: Binding affinity to 6-His-N-terminal tagged human PTP1B expressed in Escherichia coli BL21 (DE3) cells after 3 hrs by tryptophan emission monitoring analysis
T6 sequence (whole entry): T1 sequence (P18031 whole entry)

[12] = biological target: T6, Tyrosine-protein phosphatase non-receptor type 1 (Homo sapiens); experiment: Binding affinity to 6-His-N-terminal tagged human PTP1B expressed in Escherichia coli BL21 (DE3) cells assessed as protein aggregate formation up to 100 uM after 1 hr by native PAGE analysis
[13] = biological target: Albumin (Bos taurus, UniProt P02769); experiment: Binding affinity to bovine serum albumin after 3 hrs by tryptophan emission monitoring analysis; settings: cattle
[14] = biological target: T4, Low molecular weight phosphotyrosine protein phosphatase (Homo sapiens); experiment: Binding affinity to full length 6-His-N-terminal tagged human LMW-PTP expressed in Escherichia coli BL21 (DE3) cells assessed as protein aggregate formation up to 100 uM after 1 hr by native PAGE analysis
[15] = Retardation factor of the compound using Hexanes:AcOEt (7:3) as solvent system by column chromatography; type: physicochemical
[16] = biological target: T4, Low molecular weight phosphotyrosine protein phosphatase (Homo sapiens); experiment: Inhibition of full length 6-His-N-terminal tagged human LMW-PTP expressed in Escherichia coli BL21 (DE3) cells assessed as pNP formation using pNPP as substrate at 100 uM by plate reader analysis in presence of 50 mM MgCl2
[17] = biological target: T6, Tyrosine-protein phosphatase non-receptor type 1 (Homo sapiens); experiment: Mixed type of inhibition of 6-His-N-terminal tagged human PTP1B expressed in Escherichia coli BL21 (DE3) cells using pNPP as substrate by Lineweaver-Burk plot analysis
[18] = biological target: T6, Tyrosine-protein phosphatase non-receptor type 1 (Homo sapiens); settings: BL21-DE3, 5 uM
Description: Reversible inhibition of 6-His-N-terminal tagged human PTP1B expressed in Escherichia coli BL21 (DE3) cells using pNPP as substrate at 5 uM incubated for 15 mins prior to substrate addition measured after drug wash out by plate reader analysis

[19] = biological target: T6, Tyrosine-protein phosphatase non-receptor type 1 (Homo sapiens); experiment: Inhibition of 6-His-N-terminal tagged human PTP1B expressed in Escherichia coli BL21 (DE3) cells assessed as pNP formation using pNPP as substrate incubated for 15 mins prior to substrate addition by plate reader analysis in presence of 25 mM ammonium sulfate
[20] = biological target: T4, Low molecular weight phosphotyrosine protein phosphatase (Homo sapiens); experiment: Mixed type of inhibition of full length 6-His-N-terminal tagged human LMW-PTP expressed in Escherichia coli BL21 (DE3) cells using pNPP as substrate by Lineweaver-Burk plot analysis
[21] = biological target: T5, M-phase inducer phosphatase 2 (Homo sapiens); experiment: Inhibition of 6-His-N-terminal tagged human CDC-25B isoform 3 catalytic domain expressed in Escherichia coli BL21 (DE3) cells assessed as pNP formation using pNPP as substrate at 100 uM by plate reader analysis in presence of 50 mM MgCl2
[22] = biological target: T6, Tyrosine-protein phosphatase non-receptor type 1 (Homo sapiens); experiment: Time-dependent inhibition of 6-His-N-terminal tagged human PTP1B expressed in Escherichia coli BL21 (DE3) cells using pNPP as substrate treated with compound prior to substrate addition by plate reader analysis; settings: TDE = time-dependent effect
[23] = Retardation factor of the compound using CHCl3:MeOH (9:1) as solvent system by column chromatography; type: physicochemical

Sequence of Lysozyme C (Gallus gallus) (P00698 whole entry): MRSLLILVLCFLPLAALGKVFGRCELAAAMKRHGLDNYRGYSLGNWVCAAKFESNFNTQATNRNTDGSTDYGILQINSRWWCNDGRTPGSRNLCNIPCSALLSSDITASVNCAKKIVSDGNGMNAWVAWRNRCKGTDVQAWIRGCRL
Sequence of Albumin (P02769 whole entry): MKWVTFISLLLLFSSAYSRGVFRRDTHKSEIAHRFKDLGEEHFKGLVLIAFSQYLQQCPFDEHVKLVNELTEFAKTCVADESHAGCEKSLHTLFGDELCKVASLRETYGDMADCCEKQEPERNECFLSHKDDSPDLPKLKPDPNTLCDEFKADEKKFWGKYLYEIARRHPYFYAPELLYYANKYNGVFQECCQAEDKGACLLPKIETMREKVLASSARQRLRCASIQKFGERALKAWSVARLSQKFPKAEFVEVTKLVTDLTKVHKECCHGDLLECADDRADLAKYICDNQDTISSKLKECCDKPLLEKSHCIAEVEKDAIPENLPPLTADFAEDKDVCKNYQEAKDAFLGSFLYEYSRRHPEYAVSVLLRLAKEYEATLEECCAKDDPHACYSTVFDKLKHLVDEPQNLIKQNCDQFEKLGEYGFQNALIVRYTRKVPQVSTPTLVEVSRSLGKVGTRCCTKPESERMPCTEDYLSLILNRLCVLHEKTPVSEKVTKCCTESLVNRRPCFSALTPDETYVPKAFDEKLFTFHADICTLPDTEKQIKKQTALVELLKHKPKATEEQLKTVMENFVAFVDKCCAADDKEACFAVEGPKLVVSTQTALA

Row | SMILES | IC50 [1] [µM] | IC50 [2] [µM] | IC50 [4] [µM] | other results
1 | CCCCCCCCCCCCCCCC(=O)C1=C(O)OC2(CCCC2)OC1=O | 0.8 | 7 | 9.6 | Rf [3]: 0.59
2 | CCCCCCCCCCCCCCCC(=O)C1=C(O)OC(C)(CC)OC1=O (stereo unspecified) | 0.8 | 5.5 | 29.3 | Rf [3]: 0.42
3 | CC(C)C(=O)C1=C(O)OC(C)(C)OC1=O | 72.7 | > 100 |  | Rf [5]: 0.5; inhibition [6]: inactive
4 | CC(=O)C1=C(O)OC(C)(C)OC1=O | > 100 |  |  | inhibition [7]: inactive; inhibition [6]: inactive
5 | CCCCCCCCCCCCCCCCCC(=O)C1=C(O)OC(C)(C)OC1=O | 0.6 | 6.5 | 5.3 | Rf [8]: 0.51
6 | CCCCCCCCCCCCCCCC(=O)C1=C(O)C(COS(C)(=O)=O)OC1=O (stereo unspecified) | 0.4 | 8 | 3.3 | 
7 | CCCCCCCCCCCCCCCC(=O)OC1=CC(=O)OC(COCc2ccccc2)C1 (stereo unspecified) | 8.2 | > 100 | > 100 | Activity [9]: Active; Activity [10]: Active; Activity [11]: Active; Activity [12]: inactive; Activity [13]: Active; Activity [14]: inactive; Rf [15]: 0.72
8 | CCCCCCCCCCCCCCCC(=O)C1=C(O)CC(COCc2ccccc2)OC1=O (stereo unspecified) | 5.6 | 7.2 | > 100 | Rf [15]: 0.71
9 | CCCCCCCCCCCCCCCC(=O)C1=C(O)C(COC(=O)c2ccc(C(=O)c3ccccc3)cc2)OC1=O (stereo unspecified) | 0.3 | 5.9 | 3.8 | 
10 | CCCCCCCCCCCCCCCC(=O)C1=C(O)C(CO)OC1=O (racemic) | 0.7 | 12.4 | 8.6 | Activity [9]: Active; Activity [10]: Active; inhibition [16]: inactive; inhibition [17]: Active; inhibition [18]: Active; inhibition [19]: inactive; inhibition [20]: Active; inhibition [21]: inactive; inhibition [22]: tde; Activity [11]: Active; Activity [12]: Active; Activity [13]: Active; Activity [14]: Active
11 | C=C1OC(=O)C(C(=O)CCCCCCCCCCCCCCC)=C1O | 0.4 | 7.4 | 2.5 | 
12 | CCCCCCCCCCCCCCCC(=O)C1=C(O)CC(CO)OC1=O (stereo unspecified) | 15.6 | 13.6 | > 100 | inhibition [17]: Active; inhibition [20]: Active; Rf [23]: 0.5; inhibition [22]: tde

Further lines, with some results ahead:

Row | IC50 [1] [µM] | IC50 [2] [µM] | IC50 [4] [µM] | SMILES | other results
13 | 1.1 | 4.6 | > 100 | CCCCCCCCCCCCCCCC(=O)C1=C(O)OC(CC)(CC)OC1=O | Rf [3]: 0.59
14 | 0.5 | 6.3 | 10.1 | CCCCCCCCCCCCCCCC(=O)C1=C(O)C(COC(=O)c2ccccc2C(=O)c2ccccc2)OC1=O (stereo unspecified) | 
15 | 28.7 | > 100 | > 100 | CCCCCCCCCC(=O)C1=C(O)OC(C)(C)OC1=O | Rf [3]: 0.49
16 | > 100 |  |  | CCCC(=O)C1=C(O)OC(C)(C)OC1=O | inhibition [7]: inactive; Rf [5]: 0.47; inhibition [6]: inactive
17 | 0.4 | 10.8 | 10 | CCCCCCCCCCCCCCCC(=O)C1=C(O)C(COC(C)=O)OC1=O (stereo unspecified) | 
18 | 1 | 13.7 | 22 | CCCCCCCCCCCCCCCC(=O)C1=C(O)OC(C)(C)OC1=O | Rf [8]: 0.5; inhibition [17]: Active; inhibition [19]: inactive; inhibition [20]: Active; inhibition [22]: tde
